*1 amine or outer side, *2 acyl side, *3 side chain or, on linkers, in order; H or OH if unused. Where a SMILES comes first, the peptide text is derived from it. Bridges are numbered along the chain shown (N, C = ends). [ ]: non-standard residue; d: D form. The star is where a group is joined. hTyr(3S-OH,4S-OH,3'-OSO3H) = N[C@H](C(=O)O)[C@H](O)[C@@H](O)c1ccc(O)c(OS(=O)(=O)O)c1; Orn(4R-OH,5R-OH) = O=C([C@H](C[C@@H](O)[C@@H](O)N[*:3])N[*:1])[*:2]; Pro(3S-OH,4S-Me) = C[C@H]1CN[C@H](C(=O)O)[C@H]1O; X1 = CCCCCOc1ccc(-c2cc(-c3ccc(C(=O)*)cc3)no2)cc1; Gln(3R-OH) = NC(=O)C[C@@H](O)[C@H](N)C(=O)O; Hyp = O=C(O)[C@@H]1C[C@@H](O)CN1
Experiments:
invasive candidiasis = conditions: patients <16 years with IC; MCA 2 mg/kg, liposomal amphotericin B 3 mg/kg; cited from earlier work
Procedure: High rates of survival and successful treatment responses to MCA among patients <18 years of age with IC have been reported in prospective, observational studies.[32],[33] Success rates in pediatric studies are similar to the findings of our study in infants. For example, in a pediatric substudy from a randomized, double-blind study comparing MCA (2 mg/kg) with liposomal amphotericin B (3 mg/kg) in patients <16 years of age with IC, the investigators reported similar treatment success rates after MCA (defined as both a clinical and mycologic response at the end of therapy; 73% compared with 76 ...

[1] = premature and nonpremature infants <2 years, 9 clinical trials; cited from earlier work
Excerpt: There was a slightly greater degree of nephrotoxicity at >25% baseline caused by AmB-D, although AmB-D-induced nephrotoxicity, defined as elevated serum creatinine, in the infant is usually reversible.[37] In understanding the relative tolerability of AmB-D in infants within the neonatal intensive care unit compared with older children, there are several hypotheses, including a greater nephronal reserve or the attention to appropriate hy ...

[2] = Adverse events, safety analysis set
Procedure: Adverse events, biochemical and hematologic laboratory parameters and survival were assessed for all infants who received at least 1 dose of study drug. Treatment-emergent adverse events (TEAEs), defined as AEs occurring from the first dose of the study drug through 72 hours after the last dose, were summarized by treatment group.

[3] = test system: Candida spp. (invasive candidiasis); test: Phase 3 randomized double-blind study, efficacy in infants with proven invasive candidiasis (NCT00815516); assay type: in vivo
Procedure: This was a phase 3, randomized, double-blind, multicenter, parallel-group, noninferiority study (ClinicalTrials.gov identifier: […] The follow-up was performed to capture emergent and recurrent fungal infections, to obtain a final safety evaluation and to check for resolution of those IC episodes that had not resolved by the end of treatment. […] An independent Data Review Panel reviewed and confirmed the diagnosis of IC and evaluated the efficacy outcome for each subject. Drug safety was evaluated by an unblinded Data Safety and Monitoring Board. […] FFS was defined as an infant alive and fungal free with no requirement for continued treatment with alternative antifungal therapy. […] Responses were defined as follows: complete response (resolution of all attributable signs related to fungal infection); partial response (improvement in attributable signs related to the fungal infection); stabilization (minor improvement or no change in attributable signs related to the fungal infection and the infant continued on therapy without deterioration); progression (deterioration in attributable signs related to the fungal infection or death presumably related to fungal infection). […] Persistence was defined by continued isolation or histologic documentation from a normally sterile site. […] Following positive Candida cultures, end-organ dissemination was assessed using abdominal ultrasound and/or computed tomography scanning, echocardiogram, head imaging with ultrasound, magnetic resonance imaging or computed tomography scanning or ophthalmoscopy. An emergent fungal infection was defined as a non-Candida invasive fungal infection detected at any time during the study or any invasive fungal infection detected >96 hours postbaseline involving a Candida spp. other than those detected at baseline.

[4] = Population PK of MCA, linear 2-compartment model with body weight-based allometric scaling; assay type: in vivo; conditions: Infants (this study), mean ± SD
Procedure: Up to 3 PK blood samples (≤300 µL) were collected from infants who participated in the PK portion of the study. A population PK approach was used to define the PK profile of MCA. A linear 2-compartment population PK model with body weight–based allometric scaling was developed in neonatal and pediatric patient populations by amending a previous model[19],[26] and including data from the current study in addition to 2 previous phase 1 studies and 1 previous phase 3 study in infants.[20],[27],[28] Individual post hoc estimates of PK parameters, simulated area under the curve (AUC) at steady state and maximum plasma concentration at the end of 2-hour infusion at once-daily dose of MCA 10 mg/kg were derived based on the model.
A population PK model was developed using data from this and 8 other studies (data on file at Astellas). A 2-compartment model with body weight–based allometric scaling and first-order elimination adequately described MCA PK data regardless of age. In this study, PK data were collected from 12 of 30 study participants (Table 2).

[5] = adults, 100 mg/d (approximately 2 mg/kg); cited from earlier work
Excerpt: AmB-D has been the standard of treatment for neonatal IC in the United States for many years,[7] but nephrotoxicity is a dose-limiting toxicity.[10] […] The use of fluconazole in infants may be limited because of the resistance of some Candida spp., its frequent use as prophylaxis in extremely premature infants, its poor activity against fungal biofilms and the high doses required to reach therapeutic concentrations.[9],[ ...

C. parapsilosis [6] = test: In vitro susceptibility MIC, CLSI M27-A3; assay type: cell-based, Candida parapsilosis
Procedure: (§1) All fungal isolates were identified to the genus and species level using standard techniques. Briefly, each isolate was subcultured in CHROMagar Candida (Becton Dickinson and Company, Sparks, MD) and molecular identification by sequencing of the internal transcribed spacer region and/or 28S ribosomal subunit. In vitro susceptibility testing was performed on all fungal isolates collected during the study to calculate the minimum inhibitory concentrations (MICs) according to Clinical Laboratory Standards Institutes (CLSI) methodology (M27-A3) and European Committee on Antimicrobial Susceptibility Testing (EUCAST) methodology (EDef7.1).[24],[25]

C. parapsilosis [7] = test: In vitro susceptibility MIC, EUCAST EDef7.1; assay type: cell-based, Candida parapsilosis; conditions: baseline isolate
Procedure: as §1

[8] = irrespective of relatedness to study drug
[9] = possible or probable, as assessed by the investigator

## CCCCCOc1ccc(-c2cc(-c3ccc(C(=O)N[C@H]4C[C@@H](O)[C@@H](O)NC(=O)[C@@H]5[C@@H](O)[C@@H](C)CN5C(=O)[C@H]([C@H](O)CC(N)=O)NC(=O)[C@H]([C@H](O)[C@@H](O)c5ccc(O)c(OS(=O)(=O)O)c5)NC(=O)[C@@H]5C[C@@H](O)CN5C(=O)[C@H]([C@@H](C)O)NC4=O)cc3)no2)cc1 [MCA, micafungin] (X1-[Orn(4R-OH,5R-OH)]T[Hyp][hTyr(3S-OH,4S-OH,3'-OSO3H)][Gln(3R-OH)][Pro(3S-OH,4S-Me)]; lactam 1-C)
Invasive candidiasis
  Treatment success rate (clinical and mycologic response at end of therapy): 73%
[1]
  Treatment-related TEAEs, patients: 23%
[2]; MCA n = 20, AmB-D n = 10
  Early discontinuation of treatment: AEs: 3 (15%) n (%)
  Electrolyte supplementation received: 6 (30%) n (%)
[2]; MedDRA system organ class
  TEAEs: Blood and lymphatic system disorders: 10 (50) n (%)
  TEAEs: General disorders and administration site conditions: 3 (15) n (%)
  TEAEs: Infections and infestations: 11 (55) n (%)
  TEAEs: Investigations: 5 (25) n (%)
  TEAEs: Metabolism and nutrition disorders: 1 (5) n (%)
  TEAEs: Respiratory, thoracic and mediastinal disorders: 0 n (%)
  TEAEs: Skin and subcutaneous tissue disorders: 1 (5) n (%)
  TEAEs: Vascular disorders: 3 (15) n (%)
[2]; all deaths reported from the study
  Deaths: 3 (15) n (%)
[2]; in vivo
  Magnesium supplementation: 3 (15%) n (%)
  Potassium supplementation: 2 (10%) n (%)
[2]; [8]
  TEAE anemia: 9 (45%) n (%)
  TEAE thrombocytopenia: 2 (10%) n (%)
[2]; most common SAE in the MCA group
  SAE anemia: 4 (20%) n (%)
[2]; [9]
  Drug-related TEAEs: 11 (55) n (%)
  Drug-related TEAEs leading to death: 0 n (%)
  Drug-related serious TEAEs: 6 (30) n (%)
[2]; safety analysis set
  Serious TEAEs: 12 (60) n (%)
[2]; safety analysis set, MCA N = 20 (10 mg/kg/d), AmB-D N = 10 (1 mg/kg/d)
  TEAEs: 18 (90) n (%)
[3]; MCA n = 20, AmB-D n = 10
  Early discontinuation of treatment: lack of efficacy: 1 (5%) n (%)
[3]; at end of study and 1 week after last dose, infants with signs at baseline (MCA 18, AmB-D 10)
  Positive clinical response: 61%
[3]; did not meet primary efficacy end point, MCA n = 20, AmB-D n = 10
  Infants alive at 1 week after last dose but not fungal free: 5 (25%) n (%)
[4]; N = 12, MCA 10 mg/kg iv, individual post hoc estimates
  CL: 0.068 ± 0.039 (0.022–0.147) L/h
[4]; N = 12, MCA 10 mg/kg iv
  CL: 0.487 ± 0.200 (0.225–0.876) mL/min/kg
  Vss: 0.480 ± 0.159 (0.306–0.799) L/kg
  t1/2: 12.25 ± 2.87 (7.51–16.92) h
[4]; N = 12, simulated at 10 mg/kg once daily, 2-hour infusion
  AUCss: 399.32 ± 163.88 (190.33–742.30) μg·h/mL
[4]; N = 12, simulated at 10 mg/kg, 2-hour infusion
  C2h (steady-state plasma concentration at end of 2-hour infusion): 31.06 ± 10.53 (17.01–49.69) μg/mL
[5]
  Mean exposure (AUC): 100000 ng·h/mL
C. parapsilosis [6]; baseline isolate, persistent infection 1 of 2 in MCA group
  MCA MIC, CLSI: 1 µg/mL
C. parapsilosis [6]; baseline isolate, the other persistent infection in MCA group
  MCA MIC, CLSI: 1 µg/mL
C. parapsilosis [6]; follow-up isolates collected on day 19, both MCA-treated infants
  MCA MIC, CLSI: 1 µg/mL
C. parapsilosis [7]; persistent infection 1 of 2 in MCA group
  MCA MIC, EUCAST: 1 µg/mL
C. parapsilosis [7]; the other persistent infection in MCA group
  MCA MIC, EUCAST: 0.5 µg/mL

Reference: article PMC6155365, “A Phase 3 Study of Micafungin Versus Amphotericin B Deoxycholate in Infants With Invasive Candidiasis” (The Pediatric Infectious Disease Journal, 2018)
